“And” between values parts separate entries of the source, which are not always exact repeats. Identical values can stand only once.
Legend:
5-HT7 receptor = target: T1, 5-HT7 receptor (Homo sapiens, UniProt P34969); assay: 5-HT7 receptor affinity: radioligand binding assay ([3H]5-HT, SPA); conditions: [3H]5-HT competition binding
T1 construct: expressed in transfected cells; host or cells: AV-12 cells
Description: Membranes for affinity and antagonist activity assays are prepared essentially as follows. AV-12 cells, stably expressing the 5-HT7 receptor, are grown as a monolayer in 5×T-150 flasks in DMEM/F12 (3:1) 5% FBS, 20 mM HEPES, […], […]. After growing to 90% confluence the media is removed and replaced with Hybritech media containing 2% horse serum, […] dextran sulfate, 1 mg/mL nucellin, 1 mg/mL human transferrin (partially iron saturated), […], 20 mM HEPES, […] geneticin, 0.04% pluronic F68. The cells are grown overnight to condition the media. The next morning the conditioned media (˜150 mL total) is removed and set aside in a sterile container. The cells are trypsinized and collected in the conditioned media. Fresh suspension media is added to bring the total volume to 500 mL and a cell density of 5×10^5 cells/mL. […]
To prepare membranes, the above pellets are resuspended in ice-cold Tris buffer (20 mM Tris HCl, pH 7.4 at 23° C., 5 mM EDTA) and homogenized with a Wheaton tissue grinder. […] Protein concentrations are determined by the method of Bradford. […]
(§1) [^3H] […] The reactions are incubated at room temperature for 3 hr. and then counted in a Trilux Microbeta™ scintillation counter to detect receptor-bound radioligand. Binding data is analyzed by computer-assisted 4 parameter fit analysis (ID Business Solutions Ltd, Guildford, Surrey, UK). […]

5-HT1A = target: T2, 5-HT1A (Homo sapiens, UniProt P08908); assay: Radioligand receptor binding assay, 5-HT1A
T2 construct: expressed in transfected cells
T2 sequence (P08908 1-422): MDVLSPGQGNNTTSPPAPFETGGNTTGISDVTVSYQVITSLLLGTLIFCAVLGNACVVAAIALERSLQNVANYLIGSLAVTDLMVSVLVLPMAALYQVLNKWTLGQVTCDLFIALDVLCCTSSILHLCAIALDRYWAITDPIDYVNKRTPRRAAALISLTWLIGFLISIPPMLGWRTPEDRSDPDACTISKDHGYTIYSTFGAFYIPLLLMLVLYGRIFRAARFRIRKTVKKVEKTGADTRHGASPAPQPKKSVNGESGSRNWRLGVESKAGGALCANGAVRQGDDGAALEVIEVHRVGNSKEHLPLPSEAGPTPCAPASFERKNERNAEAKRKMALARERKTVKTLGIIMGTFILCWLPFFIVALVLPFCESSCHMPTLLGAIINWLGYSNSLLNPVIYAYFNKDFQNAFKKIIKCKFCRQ
Description: as §1
(§2) Affinity for other serotonin receptor subtypes as well as for alpha 1 & 2 adrenergic receptors can readily be determined by modification of the above described radioligand receptor binding assay using membranes derived from cells stably expressing the desired receptor subtype including the 5-HT1A, 5-HT1B, and 5-HT1D subtypes, as well as the 5-HT2A, 5-HT2B, 5-HT2C, 5-HT4, 5-HT5, and 5-HT6 receptor subtypes. […] The binding affinities of compounds of the present invention may be determined at these additional receptor types and are found to generally have selectivity ratios ≧2.0 against other serotonergic receptors. […]

5-HT1B = target: T3, 5-HT1B (Homo sapiens, UniProt P28222); assay: Radioligand receptor binding assay, 5-HT1B
T3 construct: expressed in transfected cells
Description: as §1, §2

5-HT1D = target: T4, 5-HT1D (Homo sapiens, UniProt P28221); assay: Radioligand receptor binding assay, 5-HT1D
T4 construct: expressed in transfected cells
Description: as §1, §2

5-HT2A = target: T5, 5-HT2A (Homo sapiens, UniProt P28223); assay: Radioligand receptor binding assay, 5-HT2A
T5 construct: expressed in transfected cells
Description: as §1, §2

5-HT2B = target: T6, 5-HT2B (Homo sapiens, UniProt P41595); assay: Radioligand receptor binding assay, 5-HT2B
T6 construct: expressed in transfected cells
Description: as §1, §2

5-HT2C = target: T7, 5-HT2C (Homo sapiens, UniProt P28335); assay: Radioligand receptor binding assay, 5-HT2C
T7 construct: expressed in transfected cells
T7 sequence (P28335 33-458): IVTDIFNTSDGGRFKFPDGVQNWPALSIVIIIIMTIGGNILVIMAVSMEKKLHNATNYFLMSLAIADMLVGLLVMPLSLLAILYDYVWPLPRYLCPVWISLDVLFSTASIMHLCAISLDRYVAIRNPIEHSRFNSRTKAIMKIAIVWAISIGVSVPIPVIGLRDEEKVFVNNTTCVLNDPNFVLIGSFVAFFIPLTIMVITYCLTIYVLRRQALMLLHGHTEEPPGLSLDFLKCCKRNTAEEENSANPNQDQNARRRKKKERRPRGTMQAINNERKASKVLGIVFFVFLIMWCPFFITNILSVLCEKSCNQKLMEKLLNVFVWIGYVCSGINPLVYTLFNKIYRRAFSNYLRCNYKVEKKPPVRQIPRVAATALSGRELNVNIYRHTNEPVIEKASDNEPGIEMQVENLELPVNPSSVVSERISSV
Description: as §1, §2

5-HT4 = target: T8, 5-HT4 (Homo sapiens, UniProt Q13639); assay: Radioligand receptor binding assay, 5-HT4
T8 construct: expressed in transfected cells
Description: as §1, §2

5-HT5 = target: T9, 5-HT5 (Homo sapiens, UniProt P47898); assay: Radioligand receptor binding assay, 5-HT5
T9 construct: expressed in transfected cells
Description: as §1, §2

5-HT6 = target: T10, 5-HT6 (Homo sapiens, UniProt P50406); assay: Radioligand receptor binding assay, 5-HT6
T10 construct: expressed in transfected cells
Description: as §1, §2

alpha 1 adrenergic [1] = target: T11, alpha 1 adrenergic; assay: Radioligand receptor binding assay, alpha 1 adrenergic (first line); conditions: alpha 1 adrenergic (first line, r12)
T11 construct: Ki; other: alpha 1 adrenergic (first line, r12)
Description: as §1, §2

alpha 1 adrenergic [2] = target: T12, alpha 1 adrenergic; assay: Radioligand receptor binding assay, alpha 1 adrenergic (second line); conditions: alpha 1 adrenergic (second line, r13)
T12 construct: Ki; other: alpha 1 adrenergic (second line, r13)
Description: as §1, §2

T1 sequence (P34969 whole entry): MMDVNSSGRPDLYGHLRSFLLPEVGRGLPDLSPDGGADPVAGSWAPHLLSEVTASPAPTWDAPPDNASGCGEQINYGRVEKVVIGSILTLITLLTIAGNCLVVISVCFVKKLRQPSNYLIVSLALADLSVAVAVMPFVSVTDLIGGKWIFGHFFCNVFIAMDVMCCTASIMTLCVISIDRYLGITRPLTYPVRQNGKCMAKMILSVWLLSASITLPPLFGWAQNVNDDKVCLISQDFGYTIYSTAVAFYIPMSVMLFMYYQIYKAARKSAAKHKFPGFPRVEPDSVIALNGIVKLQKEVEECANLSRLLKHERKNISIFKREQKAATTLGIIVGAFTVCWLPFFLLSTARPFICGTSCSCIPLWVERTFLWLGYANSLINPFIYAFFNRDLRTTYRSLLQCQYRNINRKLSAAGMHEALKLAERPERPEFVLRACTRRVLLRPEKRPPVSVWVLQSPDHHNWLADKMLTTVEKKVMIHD
T8 sequence (Q13639 whole entry, species assumed): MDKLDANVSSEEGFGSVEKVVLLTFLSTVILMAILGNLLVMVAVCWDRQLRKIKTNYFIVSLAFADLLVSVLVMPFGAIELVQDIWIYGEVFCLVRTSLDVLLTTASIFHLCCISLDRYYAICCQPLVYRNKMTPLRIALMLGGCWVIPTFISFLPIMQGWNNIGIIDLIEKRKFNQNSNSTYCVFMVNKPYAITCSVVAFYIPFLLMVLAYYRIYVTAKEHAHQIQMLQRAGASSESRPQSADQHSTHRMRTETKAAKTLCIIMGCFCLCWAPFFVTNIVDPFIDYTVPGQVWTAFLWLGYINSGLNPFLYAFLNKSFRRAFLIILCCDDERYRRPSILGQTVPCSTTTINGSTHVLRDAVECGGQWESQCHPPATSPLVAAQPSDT
T9 sequence (P47898 whole entry, species assumed): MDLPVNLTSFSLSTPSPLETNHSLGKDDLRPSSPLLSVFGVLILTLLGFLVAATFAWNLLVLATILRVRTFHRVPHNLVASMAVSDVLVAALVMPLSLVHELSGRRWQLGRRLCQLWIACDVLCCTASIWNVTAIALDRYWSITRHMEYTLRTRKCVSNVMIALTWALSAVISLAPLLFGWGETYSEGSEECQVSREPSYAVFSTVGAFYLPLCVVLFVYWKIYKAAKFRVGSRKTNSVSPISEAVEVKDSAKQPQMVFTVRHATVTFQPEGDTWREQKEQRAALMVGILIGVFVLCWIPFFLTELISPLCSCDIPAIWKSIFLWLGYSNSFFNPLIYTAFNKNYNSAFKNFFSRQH
T5 sequence (P28223 whole entry, species assumed): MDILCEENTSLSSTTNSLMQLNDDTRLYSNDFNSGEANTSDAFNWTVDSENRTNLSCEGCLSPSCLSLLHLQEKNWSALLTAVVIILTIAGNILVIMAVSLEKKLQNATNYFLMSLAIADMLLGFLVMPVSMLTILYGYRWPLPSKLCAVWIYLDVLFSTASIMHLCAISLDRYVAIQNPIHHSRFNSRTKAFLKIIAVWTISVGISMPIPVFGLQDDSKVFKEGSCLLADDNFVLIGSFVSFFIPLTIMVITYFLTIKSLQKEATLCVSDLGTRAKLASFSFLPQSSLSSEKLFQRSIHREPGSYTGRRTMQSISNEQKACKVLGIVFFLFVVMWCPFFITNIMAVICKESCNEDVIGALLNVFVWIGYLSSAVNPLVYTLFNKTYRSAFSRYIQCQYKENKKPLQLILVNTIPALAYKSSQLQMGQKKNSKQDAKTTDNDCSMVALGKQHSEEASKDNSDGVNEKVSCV
T3 sequence (P28222 whole entry, species assumed): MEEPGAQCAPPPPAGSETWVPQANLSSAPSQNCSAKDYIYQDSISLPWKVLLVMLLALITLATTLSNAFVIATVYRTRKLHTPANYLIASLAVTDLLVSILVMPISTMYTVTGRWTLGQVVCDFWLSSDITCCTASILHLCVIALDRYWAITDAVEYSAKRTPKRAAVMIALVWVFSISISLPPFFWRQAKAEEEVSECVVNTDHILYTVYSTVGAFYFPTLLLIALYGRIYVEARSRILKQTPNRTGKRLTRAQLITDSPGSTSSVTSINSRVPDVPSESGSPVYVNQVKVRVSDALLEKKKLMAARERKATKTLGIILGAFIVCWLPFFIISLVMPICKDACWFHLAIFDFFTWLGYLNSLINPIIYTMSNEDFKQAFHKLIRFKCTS
T10 sequence (P50406 whole entry, species assumed): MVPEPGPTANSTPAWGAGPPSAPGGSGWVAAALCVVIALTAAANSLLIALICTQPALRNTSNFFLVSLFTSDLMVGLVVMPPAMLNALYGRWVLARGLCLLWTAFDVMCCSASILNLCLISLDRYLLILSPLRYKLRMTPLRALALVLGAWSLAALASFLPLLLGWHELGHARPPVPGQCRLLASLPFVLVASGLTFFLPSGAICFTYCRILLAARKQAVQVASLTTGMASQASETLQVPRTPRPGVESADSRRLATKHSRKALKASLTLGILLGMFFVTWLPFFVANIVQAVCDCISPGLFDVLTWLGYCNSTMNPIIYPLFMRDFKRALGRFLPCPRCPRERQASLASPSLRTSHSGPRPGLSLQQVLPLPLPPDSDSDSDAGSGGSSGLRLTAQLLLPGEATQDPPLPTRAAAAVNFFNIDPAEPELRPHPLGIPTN
T4 sequence (P28221 whole entry, species assumed): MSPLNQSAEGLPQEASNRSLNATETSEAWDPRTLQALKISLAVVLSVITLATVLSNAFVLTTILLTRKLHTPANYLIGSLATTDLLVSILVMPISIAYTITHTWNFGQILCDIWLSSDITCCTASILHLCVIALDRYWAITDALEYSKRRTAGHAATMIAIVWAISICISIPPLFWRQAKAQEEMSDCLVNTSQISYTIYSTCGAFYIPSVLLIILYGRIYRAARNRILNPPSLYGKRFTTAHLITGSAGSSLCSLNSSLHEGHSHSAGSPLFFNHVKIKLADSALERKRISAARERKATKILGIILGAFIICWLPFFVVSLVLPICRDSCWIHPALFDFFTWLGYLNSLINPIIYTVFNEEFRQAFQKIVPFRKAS
T6 sequence (P41595 whole entry, species assumed): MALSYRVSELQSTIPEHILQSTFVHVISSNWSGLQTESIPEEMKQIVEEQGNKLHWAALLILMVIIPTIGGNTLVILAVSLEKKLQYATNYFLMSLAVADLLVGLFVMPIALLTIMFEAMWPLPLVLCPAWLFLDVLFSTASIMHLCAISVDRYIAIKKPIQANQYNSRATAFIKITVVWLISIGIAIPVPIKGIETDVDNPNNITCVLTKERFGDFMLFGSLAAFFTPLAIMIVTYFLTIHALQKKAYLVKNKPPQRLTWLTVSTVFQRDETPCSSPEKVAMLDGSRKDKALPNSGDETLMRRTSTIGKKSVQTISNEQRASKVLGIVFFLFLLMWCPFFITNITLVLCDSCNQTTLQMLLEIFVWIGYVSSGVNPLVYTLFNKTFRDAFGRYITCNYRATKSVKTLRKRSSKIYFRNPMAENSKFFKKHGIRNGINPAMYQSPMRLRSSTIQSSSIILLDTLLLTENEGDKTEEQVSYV

Structure (SMILES): Cn1cc(CN2CCN(c3nccnc3-c3cccc(F)c3F)CC2)cn1 [Example 142, 4-(1-Methyl-1H-pyrazol-4-ylmethyl)-3′-(2,3-difluorophenyl)-3,4,5,6-tetrahydro-2H-[1,2′]bipyrazine]
- Ki (5-HT7 receptor): ~44 nM and 44 nM
- Ki (5-HT1A): 1250 nM
- Ki (5-HT1B): > 3580 nM
- Ki (5-HT1D): > 2400 nM
- Ki (5-HT2A): > 7470 nM
- Ki (5-HT2B): > 3160 nM
- Ki (5-HT2C): > 8200 nM
- Ki (5-HT4): > 6310 nM
- Ki (5-HT5): > 7020 nM
- Ki (5-HT6): > 1790 nM
- Ki (alpha 1 adrenergic [1]): > 1440 nM
- Ki (alpha 1 adrenergic [2]): 933 nM
